Experimental data from US20100279995A1, “Novel Ansamycin Derivatives” (priority 2005, published 2010).

Tests used:
[1] = Cleavage assay in phosphate buffer; type: physicochemical; conditions: cleavage to 18,21-dihydromacbecin
Experimental: (§1) Cleavage Assays for Pro-Drugs of 18,21-dihydromacbecin
(§2) Assays to determine the rate of cleavage of the pro-drugs into their parent compounds were performed as described herein. These were carried out in plasma, blood or buffer. Mixed mouse, human or mixed rat plasma containing EDTA or heparin as an anti-coagulant was used or whole defibrinated rabbit blood (mouse and rat plasma and rabbit blood were obtained from Harlan-Sera Labs, human plasma was obtained from Biopredic International).
The stability of the test compounds in phosphate-buffered saline (PBS) of specific pH over the course of each experiment was also analysed using the same methodology.
After the final time point was sampled, the samples were extracted as follows. For each time point sample an Oasis MCX (3 cc/60 mg) or Oasis HLB (333/60 mg) cartridge was conditioned and equilibrated with 2 mL methanol followed by 2 mL water. 1.5 mL water and an internal standard (IS) at 0.002 mg/mL were added to each 0.4 mL plasma sample. This was loaded to the cartridge. The cartridge was washed with 2 mL water and the analytes were eluted in 2 ml MeOH. This extract was analysed without further treatment by LC/MS using the conditions described below.
The cleavage of compounds 1-3 was also measured in phosphate buffer as described in the General Methods—Cleavage Assay above at pH 7.2 and pH 7.4 and T1/2 values calculated as indicated in Table 5 below.

[2] = Cleavage assay in whole defibrinated rabbit blood; type: in vitro ADME
Experimental: as §1, §2
If using whole blood such as defibrinated whole rabbit blood the following protocol was used: The blood was thawed at 37° C. in a water bath. Blood was dispensed into individual 20 mL tubes for each test compound allowing 0.5 mL for each time point to be analysed. A tube containing blood was also included as a control. These tubes were incubated for 15 minutes at 37° C.
Each test compound was reconstituted in DMSO or other appropriate solvent. The blood was removed from the water bath and the compound was added to give a final concentration of 0.001-0.010 mg/mL keeping the final concentration of solvent below 5%. In the case of the control, an equivalent volume of DMSO or other solvent was added. Immediately after the addition of compound a 0.4 mL sample was taken from the tube, transferred to a 2 mL microfuge tube. The plasma was promptly returned to the 37° C. water bath. 0.4 mL samples were taken at regular time points (e.g. after 30 min and then hourly) and were immediately frozen at −80° C. To each 0.4 mL sample in its 2 mL microfuge tube was added 1.5 mL of 0.1 M potassium dihydrogen phosphate, this was inverted to mix. A stable internal standard (IS) in acetonitrile was added at 0.002 mg/mL. This was agitated for 5 min on an IKA shaker at 1500 rpm. Centrifugation at 5000 rpm for 5 min lead to a dense pellet made up of red blood cells and precipitated protein, and a pink/red supernatant. An Oasis HLB (333/60 mg) cartridge was equilibrated with 2 mL of methanol followed by 2 mL of water. […]
The HPLC conditions were: 10% B for 1 min followed by a linear gradient to 100% B over a period of 7 min and an isocratic period of 2 min at 100% B. The analytes were detected by UV absorbance at 255 nm and mass spectrometry using a Bruker Daltonics Esquire 3000+ mass spectrometer coupled to the HPLC. The analytes were quantified based on the extracted ion chromatogram. To ensure a reliable quantification, the linear response of the mass spectrometer was checked for the concentration range of interest.
Each compound was assessed for cleavage to 18,21-dihydromacbecin as follows. […] The samples were applied to a cartridge described above and analysed immediately using Analysis Method C.

PRXF DU-145 xenografts = test: In vivo evaluation of antitumor efficacy in PRXF DU-145 xenografts; parameters: species or system nude mice; conditions: 60 mg/kg/d i.p. on Days 0-4, 7-11, 14-18, 21, 24, 25, 28 and 29; recorded on day 31; p<0.001 vs vehicle control
Reverse transcriptase = conditions: Ono et al., 1982; cited from earlier work
SF-268 = test: Monolayer proliferation assay (modified propidium iodide); type: cell-based, human; conditions: SF268, 4 days exposure
Text: (§3) In vitro evaluation of compounds for anticancer activity in a panel of 12 human tumour cell lines in a monolayer proliferation assay may be carried out at the Oncotest Testing Facility, Institute for Experimental Oncology, Oncotest GmbH, Freiburg.
(§4) The Oncotest cell lines were established from human tumor xenografts as described by Roth et al., (1999). The origin of the donor xenografts is described by Fiebig et al., (1999). Other cell lines were either obtained from the NCI (H460, SF-268, OVCAR-3, DU145, MDA-MB-231, MDA-MB-468) or purchased from DSMZ, Braunschweig, Germany (LNCAP).
(§5) All cell lines, unless otherwise specified, were grown at 37° C. in a humidified atmosphere (95% air, 5% CO2) in a ‘ready-mix’ medium containing RPMI 1640 medium, 10% fetal calf serum, and 0.1 mg/mL gentamicin (PAA, Cölbe, Germany).
(§6) A modified propidium iodide assay was used to assess the effects of the test compound(s) on the growth of twelve human tumour cell lines (Dengler et al., (1995)).
(§7) Briefly, cells were harvested from exponential phase cultures by trypsinization, counted and plated in 96 well flat-bottomed microtitre plates at a cell density dependent on the cell line (5-10.000 viable cells/well). After 24 h recovery to allow the cells to resume exponential growth, 0.010 mL of culture medium (6 control wells per plate) or culture medium containing macbecin was added to the wells. Each concentration was plated in triplicate. Compounds were applied in two concentrations (0.001 mM and 0.01 mM). Following 4 days of continuous exposure, cell culture medium with or without test compound is replaced by 0.2 mL of an aqueous propidium iodide (PI) solution (7 mg/L). To measure the proportion of living cells, cells are permeabilized by freezing the plates. After thawing the plates, fluorescence was measured using the Cytofluor 4000 microplate reader (excitation 530 nm, emission 620 nm), giving a direct relationship to the total number of viable cells.
(§8) Growth inhibition is expressed as treated/control×100 (% T/C).
(§9) In vitro evaluation of macbecin for anticancer activity in a panel of 12 human tumor cell lines in a monolayer proliferation assay was carried out as described in the general methods using a modified propidium iodide assay.

MEXF 394NL = test: as above; type: cell-based, human; conditions: 4 days exposure
Text: as §3, §4, §5, §6, §7, §8, §9

LNCAP = test: as above; type: cell-based, human; conditions: 4 days exposure
Text: as §3, §4, §5, §6, §7, §8, §9

UXF 1138L = test: as above; type: cell-based, human; conditions: 4 days exposure
Text: as §3, §4, §5, §6, §7, §8, §9

MDA-MB-231 = test: as above; type: cell-based, human; conditions: MDA231, 4 days exposure
Text: as §3, §4, §5, §6, §7, §8, §9

GXF 251L = test: as above; type: cell-based, human; conditions: 4 days exposure
Text: as §3, §4, §5, §6, §7, §8, §9

OVCAR-3 = test: as above; type: cell-based, human; conditions: OVCAR3, 4 days exposure
Text: as §3, §4, §5, §6, §7, §8, §9

A498 = test: as above; type: cell-based, human; conditions: 4 days exposure
Text: as §3, §4, §5, §6, §7, §8, §9

MDA-MB-468 = test: as above; type: cell-based, human; conditions: MDA468, 4 days exposure
Text: as §3, §4, §5, §6, §7, §8, §9

DU145 = test: as above; type: cell-based, human; conditions: 4 days exposure
Text: as §3, §4, §5, §6, §7, §8, §9

MCF-7 = test: as above; type: cell-based, human; conditions: MCF7, 4 days exposure
Text: as §3, §4, §5, §6, §7, §8, §9

NCI-H460 = test: as above; type: cell-based, human; conditions: 4 days exposure
Text: as §3, §4, §5, §6, §7, §8, §9

[3] = molecular target: terminal deoxynucleotidyl transferase (Homo sapiens, UniProt P04053); conditions: Ono et al., 1982; cited from earlier work
[4] = Phosphate Buffer pH 7.2 (37° C.)
[5] = Phosphate Buffer pH 7.4 (37° C.)
[6] = Rabbit blood pH 7.3 (37° C.) Run 1

Sequence of terminal deoxynucleotidyl transferase (P04053 whole entry, species assumed): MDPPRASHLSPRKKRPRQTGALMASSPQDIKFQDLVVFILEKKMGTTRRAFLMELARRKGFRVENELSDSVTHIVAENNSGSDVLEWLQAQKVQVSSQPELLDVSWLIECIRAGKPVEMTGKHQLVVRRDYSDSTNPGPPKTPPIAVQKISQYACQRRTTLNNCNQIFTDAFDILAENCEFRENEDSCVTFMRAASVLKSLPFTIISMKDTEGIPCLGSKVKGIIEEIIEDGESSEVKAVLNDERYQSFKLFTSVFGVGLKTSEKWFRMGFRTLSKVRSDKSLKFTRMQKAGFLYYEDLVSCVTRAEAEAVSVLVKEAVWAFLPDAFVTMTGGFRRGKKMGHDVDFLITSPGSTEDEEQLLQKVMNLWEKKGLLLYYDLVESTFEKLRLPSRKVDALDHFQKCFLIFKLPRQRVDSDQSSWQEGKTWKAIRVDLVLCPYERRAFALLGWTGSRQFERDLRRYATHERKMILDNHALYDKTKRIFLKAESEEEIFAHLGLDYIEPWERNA

## 18-O—(N,N′-diethylethylenediamine-N′-carbamoyl)-18,21-dihydromacbecin Hydrochloride Salt [Compound 3]
[1]; [4]
  t1/2: 276 min
[1]; [5]
  t1/2: 160 min
[2]; [6]
  t1/2: 160 min

## 18-O—(N,N′-dimethylethylenediamine-N′-carbamoyl)-18,21-dihydromacbecin Hydrochloride Salt [Compound 1]
[1]; [4]
  t1/2: 64 min
[1]; [5]
  t1/2: 49 min
[2]; [6]
  t1/2: 45 min
[2]; Rabbit blood pH 7.3 (37° C.) Run 2
  t1/2: 49 min
PRXF DU-145 xenografts
  minimum T/C value: 24.3%

## CNCCNC(=O)Oc1cc2c(O)c(c1)C(OC)C(C)CC(OC)C(OC)C(C)C=C(C)C(OC(N)=O)C(C)C=CC=C(C)C(=O)N2.Cl (stereo not shown) [Compound 2, 18-O—(N-methylethylenediamine-N′-carbamoyl)-18,21-dihydromacbecin Hydrochloride Salt]
[1]; [4]
  t1/2: 627 min
[1]; [5]
  t1/2: 127 min
[2]; [6]
  t1/2: 153 min

## CO[C@H]1[C@@H](OC)C[C@H](C)[C@@H](OC)C2=CC(=O)C=C(NC(=O)/C(C)=C/C=C\[C@@H](C)[C@@H](OC(N)=O)/C(C)=C/[C@@H]1C)C2=O [macbecin]
Reverse transcriptase
  Reverse transcriptase activity inhibition: not inhibited
SF-268; 1 × 10−5 M
  Test/Control (%) at drug concentration: 20.5%
SF-268; 1 × 10−6 M
  Test/Control (%) at drug concentration: 95.5%
MEXF 394NL; 1 × 10−5 M
  Test/Control (%) at drug concentration: 17%
MEXF 394NL; 1 × 10−6 M
  Test/Control (%) at drug concentration: 21%
LNCAP; 1 × 10−5 M
  Test/Control (%) at drug concentration: 27.5%
LNCAP; 1 × 10−6 M
  Test/Control (%) at drug concentration: 43.5%
UXF 1138L; 1 × 10−5 M
  Test/Control (%) at drug concentration: 19%
UXF 1138L; 1 × 10−6 M
  Test/Control (%) at drug concentration: 75.5%
MDA-MB-231; 1 × 10−5 M
  Test/Control (%) at drug concentration: 34%
MDA-MB-231; 1 × 10−6 M
  Test/Control (%) at drug concentration: 88%
GXF 251L; 1 × 10−5 M
  Test/Control (%) at drug concentration: 37%
GXF 251L; 1 × 10−6 M
  Test/Control (%) at drug concentration: 61%
OVCAR-3; 1 × 10−5 M
  Test/Control (%) at drug concentration: 37.5%
OVCAR-3; 1 × 10−6 M
  Test/Control (%) at drug concentration: 71%
A498; 1 × 10−5 M
  Test/Control (%) at drug concentration: 82%
A498; 1 × 10−6 M
  Test/Control (%) at drug concentration: 107.5%
MDA-MB-468; 1 × 10−5 M
  Test/Control (%) at drug concentration: 4%
MDA-MB-468; 1 × 10−6 M
  Test/Control (%) at drug concentration: 14.5%
DU145; 1 × 10−5 M
  Test/Control (%) at drug concentration: 14.5%
DU145; 1 × 10−6 M
  Test/Control (%) at drug concentration: 42%
MCF-7; 1 × 10−5 M
  Test/Control (%) at drug concentration: 12%
MCF-7; 1 × 10−6 M
  Test/Control (%) at drug concentration: 35.5%
NCI-H460; 1 × 10−5 M
  Test/Control (%) at drug concentration: 21.5%
NCI-H460; 1 × 10−6 M
  Test/Control (%) at drug concentration: 110%
[3]
  terminal deoxynucleotidyl transferase activity inhibition: not inhibited
